Here are results for one molecule from ChEMBL document CHEMBL5444388, “Affinity Phenotypic Cellular Literature for EUbOPEN Chemogenomic Library” (2024).

Holding throughout (type): functional, cell-based
Parameters in all cases: recommended concentration 100 nM

Experiment [1] deals with Centromere-associated protein E (Homo sapiens) (UniProt Q02224). The experiment is described as follows: Affinity Phenotypic Cellular interaction: (Cell-growth inhibition assays (growth inhibitory effect colon cancer cell line CAL-54)) EUB0000734a CENPE. The conditions noted are these: Affinity Phenotypic Cellular Source Knowledge https://pubmed.ncbi.nlm.nih.gov/20167803/.

Experiment [2] shares this target. The experiment is described as follows: Affinity Phenotypic Cellular interaction: (Cell-growth inhibition assays (growth inhibitory effect colon cancer cell line CHP-212)) EUB0000734a CENPE. The following applies: Affinity Phenotypic Cellular Source Knowledge https://pubmed.ncbi.nlm.nih.gov/20167803/.
The target is the same in experiment [3]. The experiment is described as follows: Affinity Phenotypic Cellular interaction: (Cell-growth inhibition assays (growth inhibitory effect colon cancer cell line CML-T1)) EUB0000734a CENPE. The following applies: Affinity Phenotypic Cellular Source Knowledge https://pubmed.ncbi.nlm.nih.gov/20167803/.
For experiment [4] the target is unchanged. The experiment is described as follows: Affinity Phenotypic Cellular interaction: (Cell-growth inhibition assays (growth inhibitory effect colon cancer cell line COLO 201)) EUB0000734a CENPE. The following applies: Affinity Phenotypic Cellular Source Knowledge https://pubmed.ncbi.nlm.nih.gov/20167803/.
Experiment [5] has the same target. Nature of the experiment: Affinity Phenotypic Cellular interaction: (Cell-growth inhibition assays (growth inhibitory effect colon cancer cell line EFM-19)) EUB0000734a CENPE. The following applies: Affinity Phenotypic Cellular Source Knowledge https://pubmed.ncbi.nlm.nih.gov/20167803/.
Experiment [6] shares this target. Nature of the experiment: Affinity Phenotypic Cellular interaction: (Cell-growth inhibition assays (growth inhibitory effect colon cancer cell line ES-2)) EUB0000734a CENPE. The conditions noted are these: Affinity Phenotypic Cellular Source Knowledge https://pubmed.ncbi.nlm.nih.gov/20167803/.
Experiment [7] has the same target. Nature of the experiment: Affinity Phenotypic Cellular interaction: (Cell-growth inhibition assays (growth inhibitory effect colon cancer cell line HeLa)) EUB0000734a CENPE. The following applies: Affinity Phenotypic Cellular Source Knowledge https://pubmed.ncbi.nlm.nih.gov/20167803/.
For experiment [8] the target is unchanged. The experiment is described as follows: Affinity Phenotypic Cellular interaction: (Cell-growth inhibition assays (growth inhibitory effect colon cancer cell line HOS)) EUB0000734a CENPE. The conditions noted are these: Affinity Phenotypic Cellular Source Knowledge https://pubmed.ncbi.nlm.nih.gov/20167803/.
Experiment [9] has the same target. The experiment is described as follows: Affinity Phenotypic Cellular interaction: (Cell-growth inhibition assays (growth inhibitory effect colon cancer cell line K-562)) EUB0000734a CENPE. The conditions noted are these: K562, Affinity Phenotypic Cellular Source Knowledge https://pubmed.ncbi.nlm.nih.gov/20167803/.
For experiment [10] the target is unchanged. Nature of the experiment: Affinity Phenotypic Cellular interaction: (Cell-growth inhibition assays (growth inhibitory effect colon cancer cell line MIA PaCa-2)) EUB0000734a CENPE. The conditions noted are these: Affinity Phenotypic Cellular Source Knowledge https://pubmed.ncbi.nlm.nih.gov/20167803/.
For experiment [11] the target is unchanged. The experiment is described as follows: Affinity Phenotypic Cellular interaction: (Cell-growth inhibition assays (growth inhibitory effect colon cancer cell line MV-4-11)) EUB0000734a CENPE. The conditions noted are these: MV4-11, Affinity Phenotypic Cellular Source Knowledge https://pubmed.ncbi.nlm.nih.gov/20167803/.
For experiment [12] the target is unchanged. Nature of the experiment: Affinity Phenotypic Cellular interaction: (Cell-growth inhibition assays (growth inhibitory effect lung cancer cell line MV522)) EUB0000734a CENPE. The conditions noted are these: MV-522, Affinity Phenotypic Cellular Source Knowledge https://pubmed.ncbi.nlm.nih.gov/20167803/.
Experiment [13] shares this target. The experiment is described as follows: Affinity Phenotypic Cellular interaction: (Cell-growth inhibition assays (growth inhibitory effect colon cancer cell line NCI-H2171)) EUB0000734a CENPE. The conditions noted are these: Affinity Phenotypic Cellular Source Knowledge https://pubmed.ncbi.nlm.nih.gov/20167803/.
Experiment [14] shares this target. Nature of the experiment: Affinity Phenotypic Cellular interaction: (Cell-growth inhibition assays (growth inhibitory effect colon cancer cell line NCI-H292)) EUB0000734a CENPE. The following applies: Affinity Phenotypic Cellular Source Knowledge https://pubmed.ncbi.nlm.nih.gov/20167803/.
The target is the same in experiment [15]. Nature of the experiment: Affinity Phenotypic Cellular interaction: (Cell-growth inhibition assays (growth inhibitory effect colon cancer cell line SCC-25)) EUB0000734a CENPE. The following applies: Affinity Phenotypic Cellular Source Knowledge https://pubmed.ncbi.nlm.nih.gov/20167803/.
Experiment [16] shares this target. The experiment is described as follows: Affinity Phenotypic Cellular interaction: (Cell-growth inhibition assays (growth inhibitory effect colon cancer cell line SCC-4)) EUB0000734a CENPE. The conditions noted are these: Affinity Phenotypic Cellular Source Knowledge https://pubmed.ncbi.nlm.nih.gov/20167803/.
For experiment [17] the target is unchanged. The experiment is described as follows: Affinity Phenotypic Cellular interaction: (Cell-growth inhibition assays (growth inhibitory effect colon cancer cell line SF-539)) EUB0000734a CENPE. The conditions noted are these: Affinity Phenotypic Cellular Source Knowledge https://pubmed.ncbi.nlm.nih.gov/20167803/.
The target is the same in experiment [18]. Nature of the experiment: Affinity Phenotypic Cellular interaction: (Cell-growth inhibition assays (growth inhibitory effect colon cancer cell line SN12C)) EUB0000734a CENPE. The following applies: Affinity Phenotypic Cellular Source Knowledge https://pubmed.ncbi.nlm.nih.gov/20167803/.
The target is the same in experiment [19]. Nature of the experiment: Affinity Phenotypic Cellular interaction: (Cell-growth inhibition assays (growth inhibitory effect colon cancer cell line SNB-19)) EUB0000734a CENPE. The conditions noted are these: Affinity Phenotypic Cellular Source Knowledge https://pubmed.ncbi.nlm.nih.gov/20167803/.
For experiment [20] the target is unchanged. The experiment is described as follows: Affinity Phenotypic Cellular interaction: (Cell-growth inhibition assays (growth inhibitory effect colon cancer cell line SW48)) EUB0000734a CENPE. The following applies: Affinity Phenotypic Cellular Source Knowledge https://pubmed.ncbi.nlm.nih.gov/20167803/.
Experiment [21] has the same target. Nature of the experiment: Affinity Phenotypic Cellular interaction: (Cell-growth inhibition assays (growth inhibitory effect colon cancer cell line SW-872)) EUB0000734a CENPE. The following applies: SW872, Affinity Phenotypic Cellular Source Knowledge https://pubmed.ncbi.nlm.nih.gov/20167803/.
Experiment [22] has the same target. The experiment is described as follows: Affinity Phenotypic Cellular interaction: (Cell-growth inhibition assays (growth inhibitory effect colon cancer cell line T-47D)) EUB0000734a CENPE. The following applies: T47D, Affinity Phenotypic Cellular Source Knowledge https://pubmed.ncbi.nlm.nih.gov/20167803/.
The target is the same in experiment [23]. Nature of the experiment: Affinity Phenotypic Cellular interaction: (Cell-growth inhibition assays (growth inhibitory effect colon cancer cell line WiDr)) EUB0000734a CENPE. The conditions noted are these: Affinity Phenotypic Cellular Source Knowledge https://pubmed.ncbi.nlm.nih.gov/20167803/.
For experiment [24] the target is unchanged. Nature of the experiment: Affinity Phenotypic Cellular interaction: (Cell-growth inhibition assays (growth inhibitory effect colon cancer cell line YAPC)) EUB0000734a CENPE. The conditions noted are these: Affinity Phenotypic Cellular Source Knowledge https://pubmed.ncbi.nlm.nih.gov/20167803/.

Sequence of Centromere-associated protein E (Homo sapiens) (Q02224 whole entry): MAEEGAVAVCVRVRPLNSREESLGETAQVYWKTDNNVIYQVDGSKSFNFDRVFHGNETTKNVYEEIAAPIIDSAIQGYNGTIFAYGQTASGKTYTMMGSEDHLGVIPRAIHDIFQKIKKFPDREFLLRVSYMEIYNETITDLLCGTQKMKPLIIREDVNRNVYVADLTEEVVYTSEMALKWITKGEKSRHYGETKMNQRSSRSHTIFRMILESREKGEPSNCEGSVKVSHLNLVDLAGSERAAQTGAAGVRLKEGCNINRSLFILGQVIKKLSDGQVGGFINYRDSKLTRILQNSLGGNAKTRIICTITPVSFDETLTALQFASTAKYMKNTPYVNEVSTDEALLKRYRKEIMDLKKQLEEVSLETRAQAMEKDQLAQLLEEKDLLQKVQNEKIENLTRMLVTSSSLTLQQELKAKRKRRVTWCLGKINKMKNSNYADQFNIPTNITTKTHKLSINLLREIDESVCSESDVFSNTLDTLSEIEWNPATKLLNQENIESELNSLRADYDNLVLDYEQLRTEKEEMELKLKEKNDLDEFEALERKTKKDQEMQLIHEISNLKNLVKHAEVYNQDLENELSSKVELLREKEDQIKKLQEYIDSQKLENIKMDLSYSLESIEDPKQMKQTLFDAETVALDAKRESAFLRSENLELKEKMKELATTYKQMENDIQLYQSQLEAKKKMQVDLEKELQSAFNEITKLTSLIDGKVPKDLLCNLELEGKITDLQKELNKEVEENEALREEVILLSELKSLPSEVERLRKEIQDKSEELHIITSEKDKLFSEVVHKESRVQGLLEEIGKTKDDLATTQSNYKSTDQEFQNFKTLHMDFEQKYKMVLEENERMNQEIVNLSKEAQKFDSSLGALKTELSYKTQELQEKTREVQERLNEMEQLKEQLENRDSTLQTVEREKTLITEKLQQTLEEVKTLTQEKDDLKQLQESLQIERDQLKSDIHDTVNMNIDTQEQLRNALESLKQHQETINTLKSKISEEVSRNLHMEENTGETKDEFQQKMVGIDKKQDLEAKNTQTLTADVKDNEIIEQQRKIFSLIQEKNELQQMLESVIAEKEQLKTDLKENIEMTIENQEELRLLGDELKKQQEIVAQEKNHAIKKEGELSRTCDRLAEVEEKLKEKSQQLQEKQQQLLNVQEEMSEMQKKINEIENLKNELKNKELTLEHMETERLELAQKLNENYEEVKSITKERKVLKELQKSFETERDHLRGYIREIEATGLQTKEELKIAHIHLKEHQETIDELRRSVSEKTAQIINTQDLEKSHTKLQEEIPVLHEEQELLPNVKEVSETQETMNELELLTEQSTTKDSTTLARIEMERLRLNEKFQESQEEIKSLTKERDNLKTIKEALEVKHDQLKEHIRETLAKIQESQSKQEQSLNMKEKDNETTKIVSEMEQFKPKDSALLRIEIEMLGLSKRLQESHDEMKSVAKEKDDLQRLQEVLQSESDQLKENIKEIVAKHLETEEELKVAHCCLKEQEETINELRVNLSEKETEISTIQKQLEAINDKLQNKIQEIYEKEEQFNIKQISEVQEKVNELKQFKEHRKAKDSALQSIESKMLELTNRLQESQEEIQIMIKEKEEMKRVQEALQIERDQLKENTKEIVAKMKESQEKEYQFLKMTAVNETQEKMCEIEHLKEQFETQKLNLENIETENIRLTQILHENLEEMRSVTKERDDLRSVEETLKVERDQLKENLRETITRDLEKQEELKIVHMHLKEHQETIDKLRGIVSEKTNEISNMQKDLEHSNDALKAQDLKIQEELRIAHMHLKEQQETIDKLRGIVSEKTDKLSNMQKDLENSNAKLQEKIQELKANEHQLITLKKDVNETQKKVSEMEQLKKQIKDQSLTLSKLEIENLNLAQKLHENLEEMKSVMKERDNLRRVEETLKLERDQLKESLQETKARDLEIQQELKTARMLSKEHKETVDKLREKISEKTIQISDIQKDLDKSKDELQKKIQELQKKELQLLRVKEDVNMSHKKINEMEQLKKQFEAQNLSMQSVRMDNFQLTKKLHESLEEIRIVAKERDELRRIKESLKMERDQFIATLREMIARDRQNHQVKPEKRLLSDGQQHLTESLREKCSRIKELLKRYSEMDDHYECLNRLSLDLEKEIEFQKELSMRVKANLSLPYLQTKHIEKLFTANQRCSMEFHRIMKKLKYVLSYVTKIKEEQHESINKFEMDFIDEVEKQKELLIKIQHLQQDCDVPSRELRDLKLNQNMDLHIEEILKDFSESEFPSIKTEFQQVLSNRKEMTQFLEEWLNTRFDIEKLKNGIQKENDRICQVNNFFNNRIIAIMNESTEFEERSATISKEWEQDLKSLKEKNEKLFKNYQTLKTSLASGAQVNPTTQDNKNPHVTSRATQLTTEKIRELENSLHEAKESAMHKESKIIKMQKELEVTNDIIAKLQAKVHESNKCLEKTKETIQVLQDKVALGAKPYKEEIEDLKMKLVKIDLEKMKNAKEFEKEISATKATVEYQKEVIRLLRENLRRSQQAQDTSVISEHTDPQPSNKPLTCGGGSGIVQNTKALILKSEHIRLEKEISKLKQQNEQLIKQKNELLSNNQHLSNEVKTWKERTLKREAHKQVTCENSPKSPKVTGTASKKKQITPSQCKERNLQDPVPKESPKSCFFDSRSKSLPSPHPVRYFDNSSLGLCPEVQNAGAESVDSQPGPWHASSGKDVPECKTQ

Consider `CC(C)Oc1ccc(C(=O)N[C@H](CNC(=O)CN(C)C)Cc2ccc(-c3cn4cccc([C@H](C)O)c4n3)cc2)cc1Cl`, for which the GIC50 came to 49 nM in experiment [1]; 34 nM in [2]; 13 nM in experiment [3]; 24 nM in experiment [4]; 28 nM in experiment [5]; 30 nM in experiment [6]. For the same molecule, the GIC50 in experiment [7] is 20 nM; in [8] it was 27 nM; in [9], 25 nM; in [10], 23 nM; in [11] it was 29 nM; in experiment [12] it was 48 nM. In addition, the GIC50 in experiment [13] is 24 nM; in [14], 31 nM; in experiment [15], 23 nM; in [16] it was 28 nM; in experiment [17], 28 nM; in [18], 29 nM. The GIC50 was 28 nM in experiment [19]; 25 nM in experiment [20]; 37 nM in [21]; 29 nM in experiment [22]; 18 nM in experiment [23]; 59 nM in experiment [24].
